According to US9458132B2, “Therapeutic compounds and compositions and their use as PKM2 modulators” (AGIOS PHARMACEUTICALS, INC., priority 2012, dated 2016):

Assays:
[1] = target: PKR R532W (Homo sapiens, UniProt P30613, R532W); assay: PKR mutant assay, PKR R532W AC50; assay type: biochemical; details: mutant PKR R532W enzyme
Procedure: (§1) • PKR or PKR mutant enzyme solution was diluted in assay buffer. • 2 μL of test compound was added into wells first, and then 180 μL reaction mix was added. • Reactions mixture with test compound was assembled except for ADP, and plates were stored for 60 minutes at room temperature. • 20 uL ADP was added to start reaction at room temperature and reaction progress was measured as changes in absorbance at 340 nm wavelength at room temperature.
(§2) Test Compound Preparation: • Test compound stock was made at 100x concentration in 100% DMSO (10 mM) • 1 to 3 dilutions were made for 11 points (i.e. 50 μl of first concentration added to 100 μl 100% DMSO to yield 3.33 mM, 50 μl of this added to 100 μl DMSO to yield 1.11 mM, and so forth) • 1 to 100 dilution into assay (2 μl in 200 μl) yielded starting concentration of 100 μM, decreasing 3 fold for 11 points • Assay Buffer: 100 mM KCl, 50 mM Tris 7.5, 5 mM MgCl2, 1 mM DTT, 0.03% BSA • Reaction Mixture: PKR mutant enzyme: 80-400 ng/well; ADP: 0.22-1.65 mM; PEP: 0.1-0.5 mM; NADH:180 uM; LDH: 0.5 units (Sigma#59023); DTT: 1 mM; BSA: 0.03%.
(§3) A compound described herein was diluted with DMSO and tested at 1 μM concentration. The enzyme was diluted in 1× Buffer: (100 mM KCl, 50 mM Tris 7.5, 5 mM MgCl2, 1 mM DTT, 0.03% BSA). 2 μL of compound solution was first added into wells, and then 180 μL of enzyme solution was added. Assays were assembled except for ADP, and plates were stored for 60 minutes at RT. 20 μL ADP was added to start the assay and assay output was evaluated using OD340 at SpectraMax. The assay was run at room temperature. • Final concentration: PKR R532W (100 ng/well), Tris pH 7.5 (50 mM), KCl (100 mM), MgCl2 (5 mM), ADP (0.36 mM), PEP (0.1 mM), NADH (180 μM), LDH (0.5 units, Sigma 59023), DTT (1 mM) and BSA (0.03%).

[2] = target: PKR R510Q (Homo sapiens, UniProt P30613, R510Q); assay: PKR mutant assay, PKR R510Q AC50; assay type: biochemical; details: mutant PKR R510Q enzyme
Chain of PKR R510Q (P30613 whole entry R510Q): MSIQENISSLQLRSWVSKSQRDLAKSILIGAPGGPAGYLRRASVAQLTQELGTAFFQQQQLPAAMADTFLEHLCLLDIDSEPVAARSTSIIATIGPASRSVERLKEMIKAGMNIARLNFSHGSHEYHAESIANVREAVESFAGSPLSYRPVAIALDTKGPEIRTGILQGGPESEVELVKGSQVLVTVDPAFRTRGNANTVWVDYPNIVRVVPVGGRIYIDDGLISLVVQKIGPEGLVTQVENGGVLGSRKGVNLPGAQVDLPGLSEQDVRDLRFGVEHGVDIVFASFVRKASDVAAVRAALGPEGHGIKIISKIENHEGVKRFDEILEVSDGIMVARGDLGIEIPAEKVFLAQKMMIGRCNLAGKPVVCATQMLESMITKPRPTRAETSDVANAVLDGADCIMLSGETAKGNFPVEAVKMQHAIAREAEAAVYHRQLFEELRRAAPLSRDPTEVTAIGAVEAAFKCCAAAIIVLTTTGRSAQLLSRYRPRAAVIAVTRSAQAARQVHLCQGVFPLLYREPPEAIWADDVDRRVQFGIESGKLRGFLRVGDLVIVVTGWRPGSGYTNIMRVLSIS
Procedure: as §1
as §2, with “0.03%. […]” for “0.03%.”

[3] = target: T1, PKR WT (Homo sapiens, UniProt P30613); assay: PKR WT cell based assay AC50; details: wild type PKR
T1 sequence (P30613 whole entry): as the sequence (P30613 whole entry R510Q) above, with Q510R counted along it

[4] = target: T1, PKR WT; assay: PKR WT enzymatic assay AC50; assay type: biochemical; details: wild type PKR
Procedure: as §1, §2
as §3, with “wt” for “R532W”, “(0.48” for “(0.36”, “(0.15” for “(0.1”

Chain of PKR R532W (P30613 whole entry R532W): as the sequence (P30613 whole entry R510Q) above, with Q510R, R532W counted along it

Row | SMILES | AC50 [1] | AC50 [2] | AC50 [3] | AC50 [4]
1 | Cc1cc(F)ccc1C1(O)CN(C(=O)c2ccc(NS(=O)(=O)c3cccc4cccnc34)cc2)C1 [Compound 12, N-(4-(3-(4-fluoro-2-methylphenyl)-3-hydroxyazetidine-1-carbonyl)phenyl)quinoline-8-sulfonamide] | < 100 nM | 101 to 1000 nM | 101 to 1000 nM | < 100 nM
2 | Cc1ccccc1C1(O)CN(C(=O)c2ccc(NS(=O)(=O)c3cccc4cccnc34)cc2)C1 [Compound 15, N-(4-(3-hydroxy-3-(o-tolyl)azetidine-1-carbonyl)phenyl)quinoline-8-sulfonamide] | < 100 nM | 101 to 1000 nM | 101 to 1000 nM | < 100 nM
3 | CCCCC1(O)CN(C(=O)c2ccc(NS(=O)(=O)c3cccc4cccnc34)cc2)C1 [Compound 16, N-(4-(3-butyl-3-hydroxyazetidine-1-carbonyl)phenyl)quinoline-8-sulfonamide] | 101 to 1000 nM | 101 to 1000 nM | 101 to 1000 nM | < 100 nM
4 | Cc1ncccc1C1(O)CN(C(=O)c2ccc(NS(=O)(=O)c3cccc4cccnc34)cc2)C1 [Compound 19, N-(4-(3-hydroxy-3-(2-methylpyridin-3-yl)azetidine-1-carbonyl)phenyl)quinoline-8-sulfonamide] | < 100 nM | 101 to 1000 nM | 101 to 1000 nM | 101 to 1000 nM
5 | COc1ncccc1C1(O)CN(C(=O)c2ccc(NS(=O)(=O)c3cccc4cccnc34)cc2)C1 [Compound 20, N-(4-(3-hydroxy-3-(2-methoxypyridin-3-yl)azetidine-1-carbonyl)phenyl)quinoline-8-sulfonamide] | 101 to 1000 nM | 101 to 1000 nM | 101 to 1000 nM | 101 to 1000 nM
6 | O=C(c1ccc(NS(=O)(=O)c2cccc3c2OCCO3)cc1)N1CC(O)(Cc2ccccc2)C1 [Compound 53, N-(4-(3-benzyl-3-hydroxyazetidine-1-carbonyl)phenyl)-2,3-dihydrobenzo[b][1,4]dioxine-5-sulfonamide] | < 100 nM | < 100 nM | < 100 nM | < 100 nM
7 | COc1cccc(C2(O)CN(C(=O)c3ccc(NS(=O)(=O)c4cccc5cccnc45)cc3)C2)c1 [Compound 61] | < 100 nM | 101 to 1000 nM | < 100 nM | < 100 nM
